pIC50: −log10 of the molar value.
Key:
[1] = test system: SH—SY5Y cells exposed to H2O2; test: Antioxidant activity (H2O2 exposure, LDH viability); type: cell-based, human; settings: 1 hour pretreatment, 24 hours H2O2, LDH
Protocol: In order to evaluate if these compounds have antioxidant properties cells SH—SY5Y were exposed 24 hours to […] H2O2, previously these cells were pretreated for 1 hour with the molecules at different concentrations (from 10^−5 to 10^−9). The antioxidant activity is evaluated measuring cellular viability, using the LDH assay. Cells SH—SY5Y were cultured in 96-well plates as toxicity experiments.

[2] = biological target: T1, AChE from bovine erythrocytes (Bos taurus, UniProt P23795); test: Acetylcholinesterase (AChE) inhibition (from bovine erythrocytes), Ellman method at 30° C., Digiscan 340T; type: biochemical; settings: bovine erythrocytes AChE, 30° C., 5 min preincubation; read-out: IC50 AchE
T1 construct: 0.02 units AChE (Sigma Chemical Co. from bovine erythrocytes); purchased Sigma Chemical Co; host or cells: bovine erythrocytes
T1 sequence (P23795 31-614 isoform P23795-2 limits assumed): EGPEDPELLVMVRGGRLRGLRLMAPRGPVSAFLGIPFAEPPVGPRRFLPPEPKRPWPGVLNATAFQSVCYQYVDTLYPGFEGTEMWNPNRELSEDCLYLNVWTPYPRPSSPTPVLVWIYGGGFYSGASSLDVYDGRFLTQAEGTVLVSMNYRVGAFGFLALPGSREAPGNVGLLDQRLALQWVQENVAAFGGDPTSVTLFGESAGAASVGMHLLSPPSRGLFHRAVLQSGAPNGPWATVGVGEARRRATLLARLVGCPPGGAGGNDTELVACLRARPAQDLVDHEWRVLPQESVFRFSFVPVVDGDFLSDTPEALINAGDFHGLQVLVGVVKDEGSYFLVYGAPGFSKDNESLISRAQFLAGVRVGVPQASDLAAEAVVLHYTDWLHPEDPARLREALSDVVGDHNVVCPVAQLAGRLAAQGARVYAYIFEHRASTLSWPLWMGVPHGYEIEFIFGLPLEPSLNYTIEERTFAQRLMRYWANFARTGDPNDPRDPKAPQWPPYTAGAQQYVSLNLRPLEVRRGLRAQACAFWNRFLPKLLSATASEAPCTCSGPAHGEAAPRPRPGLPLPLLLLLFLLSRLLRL
Protocol: Acetylcholinesterase (AChE) Inhibition (from Bovine Erythrocytes)
AChE inhibitory activity was evaluated at 30° C. by the colorimetric method reported by Ellman [Ellman, G. L.; Courtney, K. D.; Andres, B.; Featherstone, R. M. Biochem. Pharmacol. 1961, 7, 88-95]. The assay solution consisted of 0.1 M phosphate buffer pH 8, 0.3 mM 5,5′-dithiobis (2-nitrobenzoic acid) (DTNB, Ellman's reagent), 0.02 units AChE (Sigma Chemical Co. from bovine erythrocytes), and 0.5 mM acetylthiocholine iodide as the substrate of the enzymatic reaction. The compounds tested were added to the assay solution and preincubated with the enzyme for 5 min at 30° C. After that period, the substrate was added. The absorbance changes at 405 nm were recorded for 5 min with a microplate reader Digiscan 340T, the reaction rates were compared, and the percent inhibition due to the presence of test compounds was calculated. The reaction rate was calculated with, at least, triplicate measurements, and the percent inhibition due to the presence of test compound was calculated relative to the compound-free control.

[3] = biological target: AChE peripheral site (Homo sapiens, UniProt P22303); test: Propidium competition (fluorescence); type: binding; settings: 20 μM propidium iodide, AChE incubated at least 6 hours with compound
Chain of AChE peripheral site (P22303 32-614): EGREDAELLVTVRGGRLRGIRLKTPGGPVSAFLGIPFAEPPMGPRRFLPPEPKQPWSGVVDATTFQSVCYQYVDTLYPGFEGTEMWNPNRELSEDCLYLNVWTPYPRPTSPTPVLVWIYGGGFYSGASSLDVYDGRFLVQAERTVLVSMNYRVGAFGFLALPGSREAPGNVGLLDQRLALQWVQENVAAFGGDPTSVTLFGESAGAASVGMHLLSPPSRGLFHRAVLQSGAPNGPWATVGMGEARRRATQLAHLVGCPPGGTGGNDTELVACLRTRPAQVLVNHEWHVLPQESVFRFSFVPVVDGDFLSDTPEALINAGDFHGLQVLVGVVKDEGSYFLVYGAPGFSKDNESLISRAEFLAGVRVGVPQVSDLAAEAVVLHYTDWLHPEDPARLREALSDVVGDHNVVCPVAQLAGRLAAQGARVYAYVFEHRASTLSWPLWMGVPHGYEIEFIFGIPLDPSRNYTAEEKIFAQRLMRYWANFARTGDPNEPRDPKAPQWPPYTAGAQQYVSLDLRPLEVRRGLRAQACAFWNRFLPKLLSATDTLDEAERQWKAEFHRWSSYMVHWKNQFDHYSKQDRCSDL
Protocol: Fluorescence was measured in a Fluostar optima plate reader (BMG). Measurements were carried out in 100 μl solution volume, in 96-well plates. The buffer used was 1 mM Tris/HCl, pH 8.0. […] AChE was incubated, at least 6 hours, with the molecules at different concentrations. 20 μM propidium iodide was added 10 min before fluorescence measurement.

[4] = test system: human neuroblastoma cell line SH—SY5Y; test: Toxicity measurement (LDH) in SH-SY5Y cells; type: cell-based; settings: 24 hours exposure
Protocol: The cytotoxicity effect of the molecules was tested in the human neuroblastoma cell line SH—SY5Y. These cells were cultured in 96-well plates in minimum essential medium, Han's F12 medium, supplemented with 10% fetal bovine serum, 1% glutamine and 1% penicillin/streptomycin, and grown in. a 5% CO2 humidified incubator at 37° C.
The cells were plated at 10^4 cells for each well, at least, 48 hours before the toxicity measure. Cells were exposed for 24 hours to the compounds at different concentrations (from 10^−5 to 10^−9), quantitative assessment of cell death was made by measurement of the intracellular enzyme lactate dehydrogenase (LDH) (citotoxicity detection kit, Roche). The cuantity of LDH was evaluated in a microplate reader Anthos 2010, at 492 and 620 nm. Controls were taken as 100% viability.

[5] = biological target: T2, BuChE from human serum (Homo sapiens, UniProt P06276); test: Butyrylcholinesterase (BuChE) inhibition (from human serum); type: biochemical; settings: human serum BuChE, 30° C., 10 min preincubation; read-out: IC50 BuChE
T2 construct: The assay solution consisted of 0.01 units BuChE from human serum; from tissue; host or cells: human serum
T2 sequence (P06276 29-602): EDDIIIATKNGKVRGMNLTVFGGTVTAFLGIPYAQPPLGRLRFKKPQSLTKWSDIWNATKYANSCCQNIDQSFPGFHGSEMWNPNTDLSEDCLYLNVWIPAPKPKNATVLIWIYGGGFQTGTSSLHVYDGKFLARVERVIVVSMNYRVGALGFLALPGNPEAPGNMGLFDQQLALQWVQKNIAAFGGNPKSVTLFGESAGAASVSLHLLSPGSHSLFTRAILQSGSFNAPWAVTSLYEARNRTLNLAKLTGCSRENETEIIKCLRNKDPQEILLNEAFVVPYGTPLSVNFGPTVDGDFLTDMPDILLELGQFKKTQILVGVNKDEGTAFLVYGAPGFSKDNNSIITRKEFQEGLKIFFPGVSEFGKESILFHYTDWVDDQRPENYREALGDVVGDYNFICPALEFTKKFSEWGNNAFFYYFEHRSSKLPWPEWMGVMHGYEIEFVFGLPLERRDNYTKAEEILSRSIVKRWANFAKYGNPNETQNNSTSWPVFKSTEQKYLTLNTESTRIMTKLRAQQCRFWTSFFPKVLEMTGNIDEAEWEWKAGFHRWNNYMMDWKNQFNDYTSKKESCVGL
Protocol: Butyrylcholinetersae (BuChE) Inhibition (from Human Serum)
BuChE inhibitory activity was evaluated at 30° C. by the colorimetric method reported by Ellman (Ellman, G. L.; Courtney, K. D.; Andres, B.; Featherstone, R. M. Biochem. Pharmacol. 1961, 7, 88-95]. The assay solution consisted of 0.01 units BuChE from human serum, 0.1 M sodium phosphate buffer pH 8, 0.3 mM 5,5′-dithiobis (2-nitrobenzoic acid) (DTNB, Ellman's reagent), and 0.5 mM butylthiocholine iodide as the substrate of the enzymatic reaction. Enzyme activity was determined by measuring the absorbance at 405 nm during 5 minutes with a microplate reader Digiscan 340T. The tested compounds were preincubated with the enzyme for 10 minutes at 30° C. The reaction rate was calculated with, at least, triplicate measurements.

With `CN(CCCNc1c2c(nc3ccccc13)CCCC2)CCCNc1c2ccccc2nc2ccccc12` [Compound 21] the Antioxidant activity [1] was 10 µM, the pIC50 [2] was 8.40 and the Propidium competition [3] was 1000 µM. It also gave a Toxicity [4] of over 100 µM and a pIC50 [5] of 7.15.

Reference: patent US20060142323A1, “Dual binding site acetylcholinesterase inhibitors for the treatment of alzheimer's disease” (priority 2002, published 2006)
